# Assay results as given in patent publication US8460712B2, “Prolonged release formulations comprising an 2-oxo-1-pyrrolidine derivate” (UCB Pharma, S.A., priority 2008, dated 2013).
# How the values were obtained:
# rat hippocampal slices [1] = test: epileptiform responses in hippocampal slices induced by high-K+/low-Ca2+ fluid (HKLCF); type: cell-based, Sprague-Dawley rats; set-up: rate of spontaneous field bursting: dose or concentration left out as unconfirmed; conditions: for evoked epileptiform responses (PS1 amplitude, repetitive PSs per evoked burst): CA3 area, fimbrial stimulation, HKLCF perfusion; for rate of spontaneous field bursting: HKLCF
# Method: The effect of brivaracetam on epileptiform responses induced by high-K+/low-Ca2+ concentrations or by bicuculline was examined in transverse hippocampal slices prepared from Sprague-Dawley rats according to previously reported standard procedures. The epileptiform responses were induced by passing from a normal perfusion of artificial cerebrospinal fluid (ACSF) (K+ 3 mM; Ca2+ 2.4 mM) to either high-K+/low-Ca2+ fluid (HKLCF) (K+ 7.5 mM; Ca2+ 0.5 mM) or to 5 M bicuculline methiodide (BMI)-containing ACSF.
# Extracellular field potentials (FPs) were recorded in the CA3 area of the slices with 2 M NaCl-filled glass microelectrodes. The evoked FPs were recorded at 10-min intervals in response to fimbrial stimulation with constant current rectangular pulses that elicit a single population spike (PS) of 50-75% of the maximal amplitude when the slice is in ACSF. In the HKLCF model, 2 min of spontaneous activity were also recorded, in the middle of each 10-min interval between the recordings of evoked responses.
# Either brivaracetam or levetiracetam was added to the bathing fluid of the slices 20 min before shifting from ACSF to either HKLCF or […] BMI-containing ACSF, and was kept in the perfusion fluid throughout the experiment.
# [2] = tested on: fully amygdala-kindled rats; test: fully amygdala-kindled rats; type: in vivo; conditions: for dose from which significant suppression in motor-seizure severity was induced: rat, in vivo
# GAERS rats = test: spontaneous SWDs in GAERS rats; type: in vivo; conditions: for dose from which spontaneous SWDs were significantly suppressed: rat, in vivo
# mice [3] = test: corneal kindling of mice; type: in vivo; conditions: continued corneal stimulations after termination of treatment; group previously treated with the highest dose
# [4] = tested on: genetically sound-sensitive male mice; test: audiogenic seizures in mice; type: in vivo; conditions: acoustic stimulus 90 dB, 30 s; brivaracetam i.p. 30 min, levetiracetam i.p. 60 min before
# Method: Audiogenic seizures in mice: Genetically sound-sensitive male mice (16-28 g; n=10 per group), responding with wild running, clonic and tonic convulsions to an acoustic stimulation, were used. Audiogenic seizures were induced by an acoustic stimulus (90 dB, 10-20 kHz) applied for 30 s. The mice were pretreated with either saline, brivaracetam (i.p., 30 min) or levetiracetam (i.p., 60 min), and the proportion of mice protected against clonic convulsions was used as the end point to assess anticonvulsant activity.
# mice [5] = test: chemically induced seizures in mice (pentylenetetrazol); type: in vivo; conditions: i.p. 30 min before seizure induction; pentylenetetrazol 83 mg kg-1 s.c.; higher ED50 than audiogenic
# Method: The dose was selected based on dose-effect curves in saline-treated animals as the convulsive dose inducing clonic convulsions of all four extremities in 97% of the animals. Immediately after administration of the chemoconvulsant, the mice were placed individually in small plastic cages (25 13 8 cm) and observed for the presence of clonic convulsions in all four extremities, for 60 min. The occurrence of tonic convulsions (hindlimb extension) and mortality was also recorded during this interval. The proportion of mice protected against clonic convulsions was calculated and used as the end point for anticonvulsant activity.
# mice [6] = test: maximal electroshock in mice; type: in vivo; conditions: i.p. 30 min before seizure induction; higher ED50 than audiogenic
# rat hippocampal slices [7] = conditions: background statement; cited from earlier work
# rat hippocampal slices [8] = conditions: background statement; cited from earlier work; remark: listed apart in the source
compound,measurement,setting,value
"CCC[C@@H]1CC(=O)N([C@@H](CC)C(N)=O)C1 [Brivaracetam, (2S)-2-[(4R)-2-oxo-4-propyl-pyrrolidin-1-yl] butanamide]","evoked epileptiform responses (PS1 amplitude, repetitive PSs per evoked burst)",rat hippocampal slices [1],reduced
same,rate of spontaneous field bursting,rat hippocampal slices [1],reduced
same,after-discharge duration,"[2]; highest dose tested, 212.3 mg kg-1",significantly reduced
same,dose from which significant suppression in motor-seizure severity was induced,[2],≥ 21.2 mg/kg
same,solubility,water solubility,> 500 mg/mL
same,inhibition of spontaneous SWDs,"GAERS rats; highest dose tested, 67.9 mg kg-1",complete inhibition
same,dose from which spontaneous SWDs were significantly suppressed,GAERS rats,≥ 2.1 mg/kg
same,incidence of generalized motor seizures,mice [3],persistent reduction
same,protection against the expression of clonic convulsions,[4],protected
same,protection against clonic convulsions induced by pentylenetetrazol,mice [5],protected
same,protection against tonic hindlimb extension induced by a maximal electroshock,mice [6],protected
"CC[C@@H](C(N)=O)N1CCCC1=O [Levetiracetam, (S)-(−)-alpha-ethyl-2-oxo-1-pyrrolidine acetamide]","evoked epileptiform responses (PS1 amplitude, repetitive PSs per evoked burst)",rat hippocampal slices [1],reduced
same,rate of spontaneous field bursting,rat hippocampal slices [1],not
same,dose from which significant suppression in motor-seizure severity was induced,[2],≥ 170 mg/kg
same,after-discharge duration,[2]; up to 1700 mg kg-1,inactive
same,dose from which spontaneous SWDs were significantly suppressed,GAERS rats,≥ 5.4 mg/kg
same,epileptiform responses induced by high-K+/low-Ca2+ concentrations,rat hippocampal slices [7],reduces
same,protection against the expression of clonic convulsions,[4],protected
same,epileptiform responses induced by bicuculline,rat hippocampal slices [8],reduces
"CC[C@@H](C(N)=O)N1C[C@H](C=C(F)F)CC1=O [Seletracetam, (2S)-2-[(4S)-4-(2,2-difluorovinyl)-2-oxo-pyrrolidin-1-yl]butanamide]",solubility,water solubility,> 500 mg/mL
